pKi: −log10 of the molar value. Where a name gives a salt, the structure may show the parent alone.
What was measured:
[1] = biological target: Sigma non-opioid intracellular receptor 1 (Homo sapiens, UniProt Q99720); experiment: (§1) PDSP Secondary Binding target: SIGMAR1 - Compounds are tested at 10 uM concentration, plate are incubated at room temperature in the dark for 90 minutes. Reaction are stopped by vacuum filtration onto 0.3% polyethyleneimine soaked filter mats using Filtermate harvester. Scintillation cocktail is then melted onto microwave-dried filters on a hot plate and the radio activity is counted in Microbia counter.
Chain of Sigma non-opioid intracellular receptor 1 (Q99720 whole entry): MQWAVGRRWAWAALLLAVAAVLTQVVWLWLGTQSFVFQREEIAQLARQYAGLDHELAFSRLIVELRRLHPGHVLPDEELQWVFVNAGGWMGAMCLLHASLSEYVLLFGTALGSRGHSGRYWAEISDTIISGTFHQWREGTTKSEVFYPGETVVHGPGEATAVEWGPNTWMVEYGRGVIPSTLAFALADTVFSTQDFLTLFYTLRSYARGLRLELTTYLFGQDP

D(1A) dopamine receptor = D(1A) dopamine receptor (Homo sapiens, UniProt P21728); experiment: as §1, with “DRD1” for “SIGMAR1”
Chain of D(1A) dopamine receptor (P21728 whole entry): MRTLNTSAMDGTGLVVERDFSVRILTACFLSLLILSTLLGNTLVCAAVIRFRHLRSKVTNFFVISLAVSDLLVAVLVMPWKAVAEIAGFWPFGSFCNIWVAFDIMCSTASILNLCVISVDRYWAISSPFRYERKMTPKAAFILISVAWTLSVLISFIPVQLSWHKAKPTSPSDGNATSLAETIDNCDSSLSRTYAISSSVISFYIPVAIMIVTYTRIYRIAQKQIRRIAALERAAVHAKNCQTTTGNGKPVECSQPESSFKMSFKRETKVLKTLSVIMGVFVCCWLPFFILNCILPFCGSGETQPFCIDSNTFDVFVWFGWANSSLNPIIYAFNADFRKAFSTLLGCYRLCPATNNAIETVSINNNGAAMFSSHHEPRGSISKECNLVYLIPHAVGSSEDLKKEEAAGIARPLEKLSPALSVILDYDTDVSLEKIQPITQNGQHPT

[2] = biological target: T1, Muscarinic acetylcholine receptor M2 (Homo sapiens, UniProt P08172); experiment: as §1, with “CHRM2” for “SIGMAR1”
T1 sequence (P08172 whole entry): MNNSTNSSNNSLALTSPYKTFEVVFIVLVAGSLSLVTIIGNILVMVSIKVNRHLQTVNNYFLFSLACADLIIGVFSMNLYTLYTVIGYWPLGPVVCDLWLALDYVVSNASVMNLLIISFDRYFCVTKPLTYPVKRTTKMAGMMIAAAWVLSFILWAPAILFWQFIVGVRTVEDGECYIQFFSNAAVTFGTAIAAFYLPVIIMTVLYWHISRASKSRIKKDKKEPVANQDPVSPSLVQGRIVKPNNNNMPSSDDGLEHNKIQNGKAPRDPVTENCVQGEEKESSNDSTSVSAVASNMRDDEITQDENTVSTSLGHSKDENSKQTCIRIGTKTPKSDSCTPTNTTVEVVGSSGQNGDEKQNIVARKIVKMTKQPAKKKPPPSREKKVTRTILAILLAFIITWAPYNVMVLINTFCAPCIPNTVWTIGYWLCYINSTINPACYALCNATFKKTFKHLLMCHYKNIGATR

D(3) dopamine receptor = D(3) dopamine receptor (Homo sapiens, UniProt P35462); experiment: as §1, with “DRD3” for “SIGMAR1”
Chain of D(3) dopamine receptor (P35462 whole entry): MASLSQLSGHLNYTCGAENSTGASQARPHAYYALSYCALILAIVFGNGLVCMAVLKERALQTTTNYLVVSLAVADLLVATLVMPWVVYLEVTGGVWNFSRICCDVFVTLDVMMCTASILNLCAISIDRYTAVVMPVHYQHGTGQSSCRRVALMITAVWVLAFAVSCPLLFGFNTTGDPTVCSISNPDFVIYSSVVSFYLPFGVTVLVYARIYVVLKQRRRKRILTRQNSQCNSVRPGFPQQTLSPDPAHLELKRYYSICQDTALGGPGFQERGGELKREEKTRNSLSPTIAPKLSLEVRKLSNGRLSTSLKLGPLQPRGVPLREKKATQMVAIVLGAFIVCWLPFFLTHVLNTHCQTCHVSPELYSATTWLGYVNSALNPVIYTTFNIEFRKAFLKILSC

[3] = biological target: 5-hydroxytryptamine receptor 2B (Homo sapiens, UniProt P41595); experiment: as §1, with “HTR2B” for “SIGMAR1”
Chain of 5-hydroxytryptamine receptor 2B (P41595 whole entry): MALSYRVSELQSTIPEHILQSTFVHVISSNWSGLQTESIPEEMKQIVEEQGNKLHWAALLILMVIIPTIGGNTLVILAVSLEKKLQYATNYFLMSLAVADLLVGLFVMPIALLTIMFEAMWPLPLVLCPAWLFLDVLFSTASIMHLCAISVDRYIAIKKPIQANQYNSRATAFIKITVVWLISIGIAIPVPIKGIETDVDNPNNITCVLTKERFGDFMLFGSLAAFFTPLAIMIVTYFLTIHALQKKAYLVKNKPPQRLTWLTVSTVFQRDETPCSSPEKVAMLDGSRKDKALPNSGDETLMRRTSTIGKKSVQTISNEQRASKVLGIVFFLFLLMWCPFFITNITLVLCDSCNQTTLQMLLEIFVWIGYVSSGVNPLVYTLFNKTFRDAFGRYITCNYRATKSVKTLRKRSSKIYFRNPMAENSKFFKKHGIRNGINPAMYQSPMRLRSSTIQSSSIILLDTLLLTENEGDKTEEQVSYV

[4] = biological target: 5-hydroxytryptamine receptor 2A (Homo sapiens, UniProt P28223); experiment: as §1, with “HTR2A” for “SIGMAR1”
Chain of 5-hydroxytryptamine receptor 2A (P28223 whole entry): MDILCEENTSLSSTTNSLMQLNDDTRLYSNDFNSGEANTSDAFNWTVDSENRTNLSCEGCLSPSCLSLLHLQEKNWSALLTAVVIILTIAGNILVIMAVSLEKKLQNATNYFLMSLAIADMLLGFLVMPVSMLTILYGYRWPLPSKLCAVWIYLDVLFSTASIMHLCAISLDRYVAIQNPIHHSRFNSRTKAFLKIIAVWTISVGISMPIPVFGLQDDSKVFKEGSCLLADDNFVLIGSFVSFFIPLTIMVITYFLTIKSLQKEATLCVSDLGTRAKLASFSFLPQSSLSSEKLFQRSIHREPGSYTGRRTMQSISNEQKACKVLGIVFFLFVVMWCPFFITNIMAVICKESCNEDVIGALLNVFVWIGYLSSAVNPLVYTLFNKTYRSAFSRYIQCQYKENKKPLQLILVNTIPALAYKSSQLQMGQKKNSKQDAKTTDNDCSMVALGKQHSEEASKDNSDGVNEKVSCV

[5] = biological target: Kappa-type opioid receptor (Homo sapiens, UniProt P41145); experiment: as §1, with “OPRK1” for “SIGMAR1”
Chain of Kappa-type opioid receptor (P41145 whole entry): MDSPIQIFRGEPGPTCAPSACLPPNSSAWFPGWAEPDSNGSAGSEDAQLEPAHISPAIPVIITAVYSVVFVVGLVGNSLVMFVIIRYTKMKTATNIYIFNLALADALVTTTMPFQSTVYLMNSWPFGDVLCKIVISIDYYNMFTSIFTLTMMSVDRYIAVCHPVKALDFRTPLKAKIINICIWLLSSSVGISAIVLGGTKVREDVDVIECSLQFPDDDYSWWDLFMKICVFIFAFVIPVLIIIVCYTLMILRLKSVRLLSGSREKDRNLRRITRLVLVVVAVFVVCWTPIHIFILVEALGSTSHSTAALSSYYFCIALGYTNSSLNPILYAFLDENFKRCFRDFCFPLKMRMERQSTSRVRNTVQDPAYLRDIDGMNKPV

Translocator protein = Translocator protein (Homo sapiens, UniProt P30536); experiment: as §1, with “TSPO” for “SIGMAR1”
[6] = biological target: Beta-2 adrenergic receptor (Homo sapiens, UniProt P07550); experiment: as §1, with “ADRB2” for “SIGMAR1”
Chain of Beta-2 adrenergic receptor (P07550 whole entry): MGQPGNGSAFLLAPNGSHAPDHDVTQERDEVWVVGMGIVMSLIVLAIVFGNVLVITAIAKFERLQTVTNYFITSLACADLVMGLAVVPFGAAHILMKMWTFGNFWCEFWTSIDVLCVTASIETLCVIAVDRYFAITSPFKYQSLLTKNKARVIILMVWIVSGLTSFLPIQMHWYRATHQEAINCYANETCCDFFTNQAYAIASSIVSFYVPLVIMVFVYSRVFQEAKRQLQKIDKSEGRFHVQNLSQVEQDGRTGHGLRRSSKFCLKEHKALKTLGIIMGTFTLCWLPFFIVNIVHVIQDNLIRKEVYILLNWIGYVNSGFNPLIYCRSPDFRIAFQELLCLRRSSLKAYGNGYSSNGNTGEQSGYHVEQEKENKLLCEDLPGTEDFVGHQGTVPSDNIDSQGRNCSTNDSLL

[7] = biological target: T2, Muscarinic acetylcholine receptor M5 (Homo sapiens, UniProt P08912); experiment: as §1, with “CHRM5” for “SIGMAR1”
T2 sequence (P08912 whole entry): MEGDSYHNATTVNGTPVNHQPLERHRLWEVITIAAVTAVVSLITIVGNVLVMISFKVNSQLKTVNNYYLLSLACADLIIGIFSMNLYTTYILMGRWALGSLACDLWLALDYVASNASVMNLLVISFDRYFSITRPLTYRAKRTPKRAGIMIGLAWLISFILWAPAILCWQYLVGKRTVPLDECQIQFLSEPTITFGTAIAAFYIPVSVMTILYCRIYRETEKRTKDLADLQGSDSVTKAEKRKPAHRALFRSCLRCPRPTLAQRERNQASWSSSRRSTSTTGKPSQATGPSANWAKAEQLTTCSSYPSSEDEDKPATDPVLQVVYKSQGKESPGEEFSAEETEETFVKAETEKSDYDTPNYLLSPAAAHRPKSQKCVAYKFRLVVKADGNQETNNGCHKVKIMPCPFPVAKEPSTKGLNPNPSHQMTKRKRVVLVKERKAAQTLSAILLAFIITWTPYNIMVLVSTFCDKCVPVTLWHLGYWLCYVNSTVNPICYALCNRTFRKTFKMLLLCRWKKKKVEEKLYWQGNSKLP

[8] = biological target: T3, Muscarinic acetylcholine receptor M1 (Homo sapiens, UniProt P11229); experiment: as §1, with “CHRM1” for “SIGMAR1”
T3 sequence (P11229 whole entry): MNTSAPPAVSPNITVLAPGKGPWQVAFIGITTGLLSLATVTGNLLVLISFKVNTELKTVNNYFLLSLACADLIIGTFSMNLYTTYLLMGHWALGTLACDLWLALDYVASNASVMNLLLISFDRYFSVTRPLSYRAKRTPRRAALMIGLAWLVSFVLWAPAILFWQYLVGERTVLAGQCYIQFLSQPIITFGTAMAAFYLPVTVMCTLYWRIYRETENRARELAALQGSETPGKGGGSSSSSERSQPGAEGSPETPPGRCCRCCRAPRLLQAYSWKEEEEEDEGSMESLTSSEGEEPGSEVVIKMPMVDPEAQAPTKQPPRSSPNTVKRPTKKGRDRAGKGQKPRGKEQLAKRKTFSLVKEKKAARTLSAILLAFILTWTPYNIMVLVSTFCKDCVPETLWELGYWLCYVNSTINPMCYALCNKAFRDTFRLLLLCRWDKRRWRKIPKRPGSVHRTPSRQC

[9] = biological target: Muscarinic acetylcholine receptor M3 (Homo sapiens, UniProt P20309); experiment: as §1, with “CHRM3” for “SIGMAR1”
Chain of Muscarinic acetylcholine receptor M3 (P20309 whole entry): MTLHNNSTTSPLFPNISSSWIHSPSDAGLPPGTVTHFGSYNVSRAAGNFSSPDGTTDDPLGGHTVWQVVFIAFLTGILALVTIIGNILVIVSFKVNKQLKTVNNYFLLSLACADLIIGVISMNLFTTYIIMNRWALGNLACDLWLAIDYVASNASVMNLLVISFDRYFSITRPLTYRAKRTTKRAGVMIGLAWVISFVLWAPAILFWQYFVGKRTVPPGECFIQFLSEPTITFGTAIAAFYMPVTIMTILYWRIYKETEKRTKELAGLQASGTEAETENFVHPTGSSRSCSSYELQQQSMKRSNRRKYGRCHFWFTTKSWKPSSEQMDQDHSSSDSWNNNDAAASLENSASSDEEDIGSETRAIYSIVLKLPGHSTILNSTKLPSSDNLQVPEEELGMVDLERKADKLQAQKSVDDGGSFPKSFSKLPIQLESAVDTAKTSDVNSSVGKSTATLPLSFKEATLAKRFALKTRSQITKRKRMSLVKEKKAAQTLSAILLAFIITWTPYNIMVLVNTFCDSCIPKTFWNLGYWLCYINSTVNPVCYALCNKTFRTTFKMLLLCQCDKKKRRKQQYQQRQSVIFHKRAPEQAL

D(1B) dopamine receptor = D(1B) dopamine receptor (Homo sapiens, UniProt P21918); experiment: as §1, with “DRD5” for “SIGMAR1”
Chain of D(1B) dopamine receptor (P21918 whole entry): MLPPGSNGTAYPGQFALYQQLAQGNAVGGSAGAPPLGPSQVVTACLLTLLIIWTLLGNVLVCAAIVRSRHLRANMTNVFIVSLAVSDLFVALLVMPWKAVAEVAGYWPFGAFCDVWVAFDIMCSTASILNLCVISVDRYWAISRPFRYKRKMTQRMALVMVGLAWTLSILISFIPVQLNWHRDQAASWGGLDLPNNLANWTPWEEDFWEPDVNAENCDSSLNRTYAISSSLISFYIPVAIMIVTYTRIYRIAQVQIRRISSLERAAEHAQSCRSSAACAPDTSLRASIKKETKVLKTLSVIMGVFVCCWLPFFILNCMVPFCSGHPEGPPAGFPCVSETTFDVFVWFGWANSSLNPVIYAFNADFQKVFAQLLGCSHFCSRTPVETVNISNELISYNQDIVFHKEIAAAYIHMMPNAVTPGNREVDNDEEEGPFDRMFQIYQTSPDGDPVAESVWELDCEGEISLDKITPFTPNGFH

[10] = biological target: T4, Muscarinic acetylcholine receptor M4 (Homo sapiens, UniProt P08173); experiment: as §1, with “CHRM4” for “SIGMAR1”
T4 sequence (P08173 whole entry): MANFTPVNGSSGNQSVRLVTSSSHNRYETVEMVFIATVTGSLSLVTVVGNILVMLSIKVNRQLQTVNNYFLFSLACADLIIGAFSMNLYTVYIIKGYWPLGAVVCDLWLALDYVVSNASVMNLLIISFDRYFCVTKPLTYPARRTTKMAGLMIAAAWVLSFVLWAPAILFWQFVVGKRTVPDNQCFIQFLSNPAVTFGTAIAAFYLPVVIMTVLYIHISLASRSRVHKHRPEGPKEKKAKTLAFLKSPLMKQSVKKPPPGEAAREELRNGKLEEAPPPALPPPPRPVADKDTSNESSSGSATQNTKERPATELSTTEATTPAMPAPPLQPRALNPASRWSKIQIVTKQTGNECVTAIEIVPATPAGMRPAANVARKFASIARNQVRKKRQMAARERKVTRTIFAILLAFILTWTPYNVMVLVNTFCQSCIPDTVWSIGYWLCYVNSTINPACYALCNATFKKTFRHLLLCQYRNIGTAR

[11] = biological target: Sigma intracellular receptor 2 (Homo sapiens, UniProt Q5BJF2); experiment: as §1, with “TMEM97” for “SIGMAR1”
Chain of Sigma intracellular receptor 2 (Q5BJF2 whole entry): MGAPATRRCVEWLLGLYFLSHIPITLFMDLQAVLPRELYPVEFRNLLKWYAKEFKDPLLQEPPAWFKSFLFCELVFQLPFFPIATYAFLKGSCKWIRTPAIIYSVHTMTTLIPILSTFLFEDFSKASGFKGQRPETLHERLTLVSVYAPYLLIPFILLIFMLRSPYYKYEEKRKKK

[12] = biological target: T5, Alpha-2A adrenergic receptor (Homo sapiens, UniProt P08913); experiment: as §1, with “ADRA2A” for “SIGMAR1”
T5 sequence (P08913 whole entry): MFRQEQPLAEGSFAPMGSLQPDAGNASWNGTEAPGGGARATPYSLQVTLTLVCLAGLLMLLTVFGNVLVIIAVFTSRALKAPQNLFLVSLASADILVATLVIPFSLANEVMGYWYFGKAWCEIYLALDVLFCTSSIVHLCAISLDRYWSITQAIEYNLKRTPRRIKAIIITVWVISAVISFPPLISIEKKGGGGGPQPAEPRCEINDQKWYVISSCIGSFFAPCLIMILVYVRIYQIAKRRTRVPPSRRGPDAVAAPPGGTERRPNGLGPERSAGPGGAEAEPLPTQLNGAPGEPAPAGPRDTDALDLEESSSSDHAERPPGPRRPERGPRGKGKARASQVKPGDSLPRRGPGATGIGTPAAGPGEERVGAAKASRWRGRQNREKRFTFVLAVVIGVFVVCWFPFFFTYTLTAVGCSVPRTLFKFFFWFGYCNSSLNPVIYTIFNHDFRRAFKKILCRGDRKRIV

[13] = biological target: 5-hydroxytryptamine receptor 6 (Homo sapiens, UniProt P50406); experiment: as §1, with “HTR6” for “SIGMAR1”
Chain of 5-hydroxytryptamine receptor 6 (P50406 whole entry): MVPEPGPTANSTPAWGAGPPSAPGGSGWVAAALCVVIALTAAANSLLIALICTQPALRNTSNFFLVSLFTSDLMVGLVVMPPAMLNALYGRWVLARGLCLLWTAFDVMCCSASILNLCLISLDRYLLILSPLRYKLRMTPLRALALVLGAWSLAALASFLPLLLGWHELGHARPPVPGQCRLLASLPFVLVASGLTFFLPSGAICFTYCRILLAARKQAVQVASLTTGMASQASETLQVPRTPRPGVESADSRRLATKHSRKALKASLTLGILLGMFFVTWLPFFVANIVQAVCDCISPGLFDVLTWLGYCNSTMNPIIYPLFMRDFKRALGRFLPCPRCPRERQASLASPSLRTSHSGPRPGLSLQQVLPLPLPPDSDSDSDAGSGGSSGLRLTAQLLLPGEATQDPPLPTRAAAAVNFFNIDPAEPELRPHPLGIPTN

[14] = biological target: T6, 5-hydroxytryptamine receptor 3A (Homo sapiens, UniProt P46098); experiment: as §1, with “HTR3A” for “SIGMAR1”
T6 sequence (P46098 whole entry): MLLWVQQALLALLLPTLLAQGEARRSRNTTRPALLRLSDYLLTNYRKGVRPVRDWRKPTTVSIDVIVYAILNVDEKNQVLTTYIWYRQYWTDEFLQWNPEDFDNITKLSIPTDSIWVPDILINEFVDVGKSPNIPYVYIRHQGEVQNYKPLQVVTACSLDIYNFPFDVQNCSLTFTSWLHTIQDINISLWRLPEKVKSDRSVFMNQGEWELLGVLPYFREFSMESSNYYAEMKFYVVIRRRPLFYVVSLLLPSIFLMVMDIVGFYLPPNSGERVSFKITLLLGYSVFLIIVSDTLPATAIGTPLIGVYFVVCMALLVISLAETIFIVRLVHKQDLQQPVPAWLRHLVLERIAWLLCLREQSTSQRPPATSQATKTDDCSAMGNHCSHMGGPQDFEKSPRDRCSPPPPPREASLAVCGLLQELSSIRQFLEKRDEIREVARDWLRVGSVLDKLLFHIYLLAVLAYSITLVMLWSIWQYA

D(2) dopamine receptor = D(2) dopamine receptor (Homo sapiens, UniProt P14416); experiment: as §1, with “DRD2” for “SIGMAR1”
Chain of D(2) dopamine receptor (P14416 whole entry): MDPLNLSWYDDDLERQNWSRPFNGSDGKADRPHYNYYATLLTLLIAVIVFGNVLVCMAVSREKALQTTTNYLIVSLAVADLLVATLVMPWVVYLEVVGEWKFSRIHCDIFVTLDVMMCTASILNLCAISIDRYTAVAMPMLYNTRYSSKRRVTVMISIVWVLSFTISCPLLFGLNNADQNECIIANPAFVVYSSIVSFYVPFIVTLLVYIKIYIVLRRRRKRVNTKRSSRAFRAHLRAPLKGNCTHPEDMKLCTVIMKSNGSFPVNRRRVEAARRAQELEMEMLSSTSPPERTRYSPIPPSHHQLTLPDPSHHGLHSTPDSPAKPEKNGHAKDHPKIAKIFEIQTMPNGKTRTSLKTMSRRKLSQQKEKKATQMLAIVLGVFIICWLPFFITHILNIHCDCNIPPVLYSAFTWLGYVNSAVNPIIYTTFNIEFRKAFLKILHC

[15] = biological target: 5-hydroxytryptamine receptor 7 (Homo sapiens, UniProt P34969); experiment: as §1, with “HTR7” for “SIGMAR1”
[16] = biological target: 5-hydroxytryptamine receptor 1B (Homo sapiens, UniProt P28222); experiment: as §1, with “HTR1B” for “SIGMAR1”

`CC(C)(C)NC[C@H](O)COc1nsnc1N1CCOCC1` [TIMOLOL] was tested, and the pKi [1] was 6.41 and the pKi (D(1A) dopamine receptor) was 5.28.

In the case of `CC(C)NC(=O)c1ccc(C#Cc2ccncc2)cn1`, the pKi [1] was 5.96 and the pKi [2] was 5.17.

In the case of `CCOC(=O)c1cc(C#N)c(N2CCC(C(=O)NS(=O)(=O)Cc3ccccc3)CC2)nc1C`, the pKi [2] was 5.04 and the pKi (D(3) dopamine receptor) was 5.55.

For `Cc1cccc(NC(=O)N[C@@H]2N=C(c3ccccc3)c3ccccc3N(C)C2=O)c1` [L-365260], the pKi [3] was 5.21, the pKi (D(1A) dopamine receptor) was 5.52 and the pKi [4] was 5.67.

`Cc1nc(C(=O)N2CCC[C@H]2Cc2nnc(-c3ccccc3)o2)c(-c2ccccc2F)s1` gave a pKi [3] of 5.52, a pKi [5] of 6.15 and a pKi (Translocator protein) of 6.10. It also gave a pKi [2] of less than 5.00.

`O=C(O)C1CN(Cc2ccc(-c3nc4cc(Cc5ccccc5F)ccc4s3)c(F)c2)C1` showed a pKi (D(3) dopamine receptor) of 5.85 and a pKi [6] of less than 5.00.

In the case of `CCN(CC)CCCCC1CCN(CC(=O)N2c3ccccc3C(=O)Nc3cccnc32)CC1`, the pKi [7] was 6.02, the pKi [8] was 6.59 and the pKi (D(1A) dopamine receptor) was 6.13. The pKi [9] was 6.82, the pKi (D(1B) dopamine receptor) was 5.73 and the pKi [10] was 7.87. For the same compound, the pKi [11] was 5.88.

`CN1CCC(=C2c3ccccc3CC(=O)c3sccc32)CC1` [KETOTIFEN FUMARATE] was tested, and the pKi [7] was 7.01, the pKi [12] was 5.96 and the pKi (D(1A) dopamine receptor) was 6.52. It also gave a pKi [13] of 6.08, a pKi [14] of 6.47 and a pKi (D(2) dopamine receptor) of 5.76. The pKi (D(1B) dopamine receptor) was 5.58, the pKi [2] was 6.61 and the pKi [15] was 6.39. For the same compound, the pKi [10] was 6.04, the pKi (D(3) dopamine receptor) was 6.14 and the pKi [11] was 6.44. For the same compound, the pKi [16] was 5.76.

`Cc1cc(C(=O)N2Cc3cnn(C)c3Nc3ccccc32)ccc1CNC(=O)N1CCC[C@H]1C(=S)N1CCCN(C)CC1` showed a pKi [7] of 6.33, a pKi [5] of 5.69 and a pKi [9] of 6.15. It also gave a pKi [2] of 5.46, a pKi [10] of 6.60 and a pKi (D(3) dopamine receptor) of 6.04.

Compound `CC[C@@H]1CN2C(=O)N(C)c3nc(-c4ccccc4)[nH]c3C2=N1` has a pKi [1] of 6.18, a pKi [4] of 5.01 and a pKi [6] of less than 5.00.

In the case of `Cc1cc(NC(=O)Nc2ccc(N(C)C)cc2)c2cc(F)cc(F)c2n1`, the pKi [1] was 5.27, the pKi [3] was 5.77 and the pKi [13] was less than 5.00. The pKi (D(2) dopamine receptor) was 5.01 and the pKi [2] was less than 5.00.

— ChEMBL document CHEMBL5442175, “EUbOPEN Chemogenomics Library - PDSP Secondary Binding” (2024)
